Measured values from article PMC8536124 (International Journal of Molecular Sciences, 2021).

Key:
HOP-62 = test: NCI-60 screening (SRB); type: cell-based, human; settings: five-dose
IGROV1 = test: NCI-60 screening (SRB); type: cell-based, human
UACC-257 = test: NCI-60 screening (SRB); type: cell-based, human; settings: five-dose
SF-295 = test: NCI-60 screening (SRB); type: cell-based, human; settings: five-dose
MDA-MB-31/ATCC = test: NCI-60 screening (SRB); type: cell-based, human; settings: five-dose
OVCAR-5 = test: NCI-60 screening (SRB); type: cell-based, human; settings: five-dose
RXF 393 = test: NCI-60 screening (SRB); type: cell-based, human; settings: five-dose
UACC-62 = test: NCI-60 screening (SRB); type: cell-based, human; settings: five-dose
CAKI-1 = test: NCI-60 screening (SRB); type: cell-based, human; settings: CAKI-1, five-dose
NCI-H460 = test: NCI-60 screening (SRB); type: cell-based, human; settings: five-dose
A549/ATCC = test: NCI-60 screening (SRB); type: cell-based, human; settings: five-dose
Ovarian cancer = test: NCI-60 screening (SRB), subpanel; type: cell-based
Excerpt: (§1) The experimental data allow the assessment of the cytostatic effect, indicated by growth inhibition values ranging between 0 and 100, as well as of the cytotoxic effect, indicated by negative values.
(§2) The mean GI50 (molar concentration of the compound that inhibits 50% net cell growth), TGI (molar concentration of the compound leading to the total inhibition), and LC50 (molar concentration of the compound leading to 50% net cell death (presented in negative logarithm)) values across each cell line are shown in Table 2.
(§3) The selectivity index (SI), calculated as the ratio between the full panel MG_MID60 (μM) of compounds 4, 6, and 9 by their respective subpanels MG_MID of the cell line (μM), was introduced as a quantification tool for the selectivity of each compound in terms of anticancer effect (Table 3).
(§4) Primary anticancer assays were performed according to the NCI protocol, as described elsewhere (see e.g., http://dtp.nci.nih.gov accessed on 1 November 2018). The compounds were added at a single concentration, and the cell cultures were incubated for 48 h. The end point determinations were made with a protein-binding dye, sulforhodamine B (SRB). […] The percentage of growth was evaluated spectrophotometrically versus controls not treated with test agents after 48 h exposure and using SRB protein assay to estimate cell viability or growth. Three antitumor activity dose-response parameters were calculated for each cell line. Furthermore, mean graph midpoints (MG_MID) were calculated for each of the parameters, giving an average activity parameter over all cell lines for the tested compound. For the MG_MID calculation, insensitive cell lines were included with the highest concentration tested.

Colon Cancer = test: NCI-60 screening (SRB), subpanel; type: cell-based
Excerpt: as §1, §2, §3, §4

NSC lung cancer = test: NCI-60 screening (SRB), subpanel; type: cell-based
Excerpt: as §1, §2, §3, §4

Prostate cancer = test: NCI-60 screening (SRB), subpanel; type: cell-based
Excerpt: as §1, §2, §3, §4

Melanoma = test: NCI-60 screening (SRB), subpanel; type: cell-based
Excerpt: as §1, §2, §3, §4

Breast cancer = test: NCI-60 screening (SRB), subpanel; type: cell-based
Excerpt: as §1, §2, §3, §4

Leukemia = test: NCI-60 screening (SRB), subpanel; type: cell-based
Excerpt: as §1, §2, §3, §4

Renal Cancer = test: NCI-60 screening (SRB), subpanel; type: cell-based
Excerpt: as §1, §2, §3, §4

OVCAR-4 = test: NCI-60 screening (SRB); type: cell-based, human; settings: five-dose
HL-60(TB) = test: NCI-60 screening (SRB); type: cell-based, human
NCI-H322M = test: NCI-60 screening (SRB); type: cell-based, human; settings: five-dose
TK-10 = test: NCI-60 screening (SRB); type: cell-based, human; settings: five-dose
NCI-H226 = test: NCI-60 screening (SRB); type: cell-based, human; settings: five-dose
MDA-MB-468 = test: NCI-60 screening (SRB); type: cell-based, human; settings: five-dose
[1] = Homo sapiens, read-out: LC50 (the source's name)
[2] = HL-60(TB) (Leukemia), 1 dose 10 µM

Work on CCN1CCN(C(=O)[C@]23CC[C@@H](C)[C@H](C)[C@H]2C2=CC[C@@H]4[C@@]5(C)C/C(=C/c6cccnc6)C(=O)C(C)(C)[C@@H]5CC[C@@]4(C)[C@]2(C)CC3)CC1 [Compound 9, N-(2-{3-Pyridinylidene}-3-oxoursan-12-en-28-oyl)-ethylpiperazine] yielded a GI50 (HOP-62; Homo sapiens) of 2.43 µM, an LC50 (HOP-62; Homo sapiens) greater than 100 µM and a TGI (HOP-62) of 5.86 µM. The GI50 (IGROV1; Homo sapiens, IGROV-1, five-dose) was 1.89 µM, the CC50 (IGROV1; Homo sapiens, IGROV-1, five-dose, read-out: LC50 (the source's name)) was 7.94 µM and the TGI (IGROV1; five-dose) was 3.87 µM. The GI50 (UACC-257; Homo sapiens) was 2.21 µM, the CC50 (UACC-257; [1]) was greater than 100 µM and the TGI (UACC-257) was 5.95 µM. For the same compound, the GI50 (SF-295; Homo sapiens) was 1.63 µM, the CC50 (SF-295; [1]) was 5.7 µM and the TGI (SF-295) was 3.05 µM. For the same compound, the GI50 (MDA-MB-31/ATCC; Homo sapiens) was 1.75 µM, the CC50 (MDA-MB-31/ATCC; [1]) was 7.39 µM and the TGI (MDA-MB-31/ATCC) was 3.59 µM. It also gave a GI50 (OVCAR-5; Homo sapiens) of 1.54 µM, a CC50 (OVCAR-5; [1]) of 5.57 µM and a TGI (OVCAR-5) of 2.93 µM. For the same compound, the GI50 (RXF 393; Homo sapiens) was 1.45 µM, the CC50 (RXF 393; [1]) was 5.53 µM and the TGI (RXF 393) was 2.83 µM. It also gave a GI50 (UACC-62; Homo sapiens) of 1.51 µM, a CC50 (UACC-62; [1]) of 5.8 µM and a TGI (UACC-62) of 2.96 µM. For the same compound, the TGI (CAKI-1) was 11.8 µM, the GI50 (CAKI-1; Homo sapiens) was 2.12 µM and the CC50 (CAKI-1; [1]) was 41.9 µM. For the same compound, the GI50 (NCI-H460; Homo sapiens) was 1.78 µM, the CC50 (NCI-H460; [1]) was 6.69 µM and the TGI (NCI-H460) was 3.45 µM. It also gave a GI50 (A549/ATCC; Homo sapiens) of 3.15 µM, a CC50 (A549/ATCC; [1]) greater than 100 µM and a TGI (A549/ATCC) of 16.8 µM. The GI50 (Ovarian cancer; Homo sapiens, Ovarian cancer subpanel, five-dose, read-out: GI50 MG_MID) was 2.04 µM, the CC50 (Ovarian cancer; Homo sapiens, Ovarian cancer subpanel, five-dose, read-out: LC50 MG_MID) was 36.2 µM and the “SI (TGI)” value (Ovarian cancer; Ovarian Cancer, MG_MID60/subpanel MG_MID) was 1.02. For the same compound, the “TGI MG_MID” value (Ovarian cancer; Ovarian cancer subpanel, five-dose) was 5.16 µM, the “TGI MG_MID” value (Colon Cancer; Colon Cancer subpanel, five-dose) was 4.00 µM and the “SI (TGI)” value (Colon Cancer; Colon Cancer, MG_MID60/subpanel MG_MID) was 1.32. It also gave a GI50 (Colon Cancer; Homo sapiens, Colon Cancer subpanel, five-dose, read-out: GI50 MG_MID) of 1.81 µM, a CC50 (Colon Cancer; Homo sapiens, Colon Cancer subpanel, five-dose, read-out: LC50 MG_MID) of 33.7 µM and a GI50 (NSC lung cancer; Homo sapiens, NSC lung cancer subpanel, five-dose, read-out: GI50 MG_MID) of 2.12 µM. The CC50 (NSC lung cancer; Homo sapiens, NSC lung cancer subpanel, five-dose, read-out: LC50 MG_MID) was 47.1 µM, the “TGI MG_MID” value (NSC lung cancer; NSC lung cancer subpanel, five-dose) was 6.81 µM and the “SI (TGI)” value (NSC lung cancer; NSCL cancer, MG_MID60/subpanel MG_MID) was 0.78. The GI50 (Prostate cancer; Homo sapiens, Prostate cancer subpanel, five-dose, read-out: GI50 MG_MID) was 1.79 µM, the CC50 (Prostate cancer; Homo sapiens, Prostate cancer subpanel, five-dose, read-out: LC50 MG_MID) was 9.23 µM and the “SI (TGI)” value (Prostate cancer; Prostate cancer, MG_MID60/subpanel MG_MID) was 0.89. The GI50 (Melanoma; Homo sapiens, Melanoma subpanel, five-dose, read-out: GI50 MG_MID) was 1.56 µM, the CC50 (Melanoma; Homo sapiens, Melanoma subpanel, five-dose, read-out: LC50 MG_MID) was 25.1 µM and the “TGI MG_MID” value (Melanoma; Melanoma subpanel, five-dose) was 3.66 µM. The “SI (TGI)” value (Melanoma; Melanoma, MG_MID60/subpanel MG_MID) was 1.45, the “TGI MG_MID” value (Breast cancer; Breast cancer subpanel, five-dose) was 5.37 µM and the “SI (TGI)” value (Breast cancer; Breast cancer, MG_MID60/subpanel MG_MID) was 0.98. The GI50 (Breast cancer; Homo sapiens, Breast cancer subpanel, five-dose, read-out: GI50 MG_MID) was 1.91 µM, the CC50 (Breast cancer; Homo sapiens, Breast cancer subpanel, five-dose, read-out: LC50 MG_MID) was 36.9 µM and the CC50 (Leukemia; Homo sapiens, Leukemia subpanel, five-dose, read-out: LC50 MG_MID) was greater than 100 µM. For the same compound, the “TGI MG_MID” value (Leukemia; Leukemia subpanel, five-dose) was 7.09 µM, the “SI (TGI)” value (Leukemia; Leukemia, MG_MID60/subpanel MG_MID) was 0.75 and the GI50 (Renal Cancer; Homo sapiens, Renal cancer subpanel, five-dose, read-out: GI50 MG_MID) was 1.97 µM. For the same compound, the LC50 (50% net cell kill) (Renal Cancer; Homo sapiens, Renal cancer subpanel, five-dose, read-out: LC50 MG_MID) was 21.3 µM, the “SI (TGI)” value (Renal Cancer; Renal Cancer, MG_MID60/subpanel MG_MID) was 0.95 and the “TGI MG_MID” value (Renal Cancer; Renal cancer subpanel, five-dose) was 5.57 µM. It also gave a GI50 (OVCAR-4; Homo sapiens) of 2.57 µM, a CC50 (OVCAR-4; [1]) of 36.6 µM and a TGI (OVCAR-4) of 7.36 µM. For the same compound, the Growth % (HL-60(TB); [2]) was −38.20%, the cell death (HL-60(TB); [2]) was 38.20% and the TGI (HL-60(TB); HL-60(TB), five-dose) was 8.97 µM. It also gave a GI50 (HL-60(TB); Homo sapiens, HL-60(TB), five-dose) of 2.78 µM, a CC50 (HL-60(TB); Homo sapiens, HL-60(TB), five-dose, read-out: LC50 (the source's name)) greater than 100 µM and a GI50 (NCI-H322M; Homo sapiens) of 2.28 µM. For the same compound, the CC50 (NCI-H322M; [1]) was 28.8 µM, the TGI (NCI-H322M) was 8.27 µM and the GI50 (TK-10; Homo sapiens) was 2.87 µM. For the same compound, the CC50 (TK-10; [1]) was 59.3 µM, the TGI (TK-10) was 9.40 µM and the GI50 (NCI-H226; Homo sapiens) was 1.89 µM. It also gave a CC50 (NCI-H226; [1]) of 8.78 µM, a TGI (NCI-H226) of 4.07 µM and a GI50 (MDA-MB-468; Homo sapiens) of 1.65 µM. The CC50 (MDA-MB-468; [1]) was 7.1 µM and the TGI (MDA-MB-468) was 3.43 µM.
